ChEMBL document CHEMBL1138204, “Low-calcemic, highly antiproliferative, 1-difluoromethyl hybrid analogs of the natural hormone 1alpha,25-dihydroxyvitamin D3: design, synthesis, and preliminary biological evaluation” (J Med Chem, 2006)

How the values were obtained:
[1] = Antiproliferative activity against murine keratinocytes; assay type: functional; settings: Mus musculus, Keratinocyte; read-out: ED50 (the source's name)
[2] = biological target: T1, Vitamin D3 receptor (Homo sapiens) (UniProt P11473); settings: CV-1
T1 sequence (whole entry): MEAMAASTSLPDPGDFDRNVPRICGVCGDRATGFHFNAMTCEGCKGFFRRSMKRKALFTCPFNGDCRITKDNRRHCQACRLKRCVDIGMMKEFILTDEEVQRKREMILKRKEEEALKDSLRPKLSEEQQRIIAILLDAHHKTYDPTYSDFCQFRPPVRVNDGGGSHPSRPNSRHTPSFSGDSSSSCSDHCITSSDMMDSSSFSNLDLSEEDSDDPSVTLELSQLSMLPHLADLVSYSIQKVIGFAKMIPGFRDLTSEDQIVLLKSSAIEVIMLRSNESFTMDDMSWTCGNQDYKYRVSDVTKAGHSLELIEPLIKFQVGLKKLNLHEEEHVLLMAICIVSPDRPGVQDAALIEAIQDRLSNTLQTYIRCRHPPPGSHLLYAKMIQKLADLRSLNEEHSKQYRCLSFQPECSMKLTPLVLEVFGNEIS
Description: Activity on human VDR-mediated transcription of osteocalcin VDRE fused to thymidine kinase promoter/growth hormone reporter gene in CV1 cells

Vitamin D3 receptor = biological target: T2, Vitamin D3 receptor (Homo sapiens, UniProt P11473); experiment: Displacement of [3H]1,25-dihydroxyvitamin D3 from human VDR by HAP assay
T2 sequence (P11473 whole entry): T1 sequence (whole entry)

[3] = biological target: T1, Vitamin D3 receptor (Homo sapiens)
Description: Stabilization of human [35S]VDR against trypsin digestion by protease assay

Rattus norvegicus = species: Rattus norvegicus; experiment: Calcemic activity in Sprague-Dawley rat measured as urinary calcium excretion relative to calcitriol; assay type: functional, Urine

| Structure (SMILES) | EC50 [1] [µM] | ED50 [2] [µM] | IC50 (Vitamin D3 receptor) [µM] | ED50 [3] [µM] | Activity (Rattus norvegicus) [%] |
| --- | --- | --- | --- | --- | --- |
| C=C1/C(=C\C=C2/CCC[C@]3(C)[C@@H]([C@H](C)CCCC(C)(C)O)CC[C@@H]23)C[C@@H](O)C[C@@H]1C(F)F | 0.15 | 0.39 | 0.03 | 0.5 |  |
| C=C1/C(=C\C=C2/CCC[C@]3(C)C([C@H](C)CCC(F)(F)C(O)(CC)CC)=CC[C@@H]23)C[C@@H](O)C[C@@H]1C(F)F | 0.002 | 0.0006 | 0.05 | 0.004 | 16 |
| C=C1/C(=C\C=C2/CCC[C@]3(C)[C@@H]([C@@H](C)OCCCC(O)(CC)CC)CC[C@@H]23)C[C@@H](O)C[C@@H]1C(F)F | 0.007 | 0.003 | 0.0195 | 0.1 | 5 |
